According to US20250304623A1, “PEPTIDES FOR INTRACELLULAR DELIVERY” (UNIVERSIDADE DE SANTIAGO DE COMPOSTELA, priority 2022, published 2025):
*: point of attachment. NHNH2 = NN*

Key:
Type in all cases: cell-based
[1] = tested on: A549 cells expressing EGFP; experiment: EGFP-targeting siRNA delivery (GFP silencing vs siMOCK), A549; conditions: for siRNA % fluorescence reduction vs siMOCK: A549, amphiphile 5 μM, hydrophobic tail; for percentage of GFP-silencing relative to siMOCK: A549 cells
Experimental: (§1) To generate an EGFP expressing HeLa cell line, HeLa cells were transfected with EGFP pDNA (pEGFP-C1, Clontech) and stable transfectants were selected with 400 μg/mL of G-418 (Millipore). Green clones were selected by epifluorescence microscopy and tested for EGFP expression stability through several passages. […] All other EGFP-expressing cell lines were obtained in a similar way from parent non-EGFP-expressing cell lines.
Cells expressing EGFP were seeded in a 96 well plate the day before the experiment at a concentration of 50,000 cell/mL (100 μL/w) in DMEM+10% FBS+1% Gln-Abt. For robotic library screening, the delivery of an EGFP-targeting siRNA (EGFP: enhanced green fluorescent protein, Ambion® Silencer® GFP Positive Control siRNA (siGFP) (AM4626)) in six different cell lines expressing EGFP was performed. […] The mixture was shaken for 30 min at room temperature (rt) before the addition to the cells. The cell medium was aspirated, and cells were washed twice with PBS. Finally, 50 μL of the solution of siRNA/amphiphile complexes were added to the cells and incubated for 4 h. After transfection, the medium was replaced by 100 μL of fresh DMEM supplemented with 10% FBS. The fluorescence knockdown was quantified after 72 h in a plate reader, by comparison with cells transfected with a non-targeting siRNA control (siMOCK, Silencer™ Negative Control No. 1 siRNA (siMOCK) (AM4611)). EGFP knockdown was compared with Lipofectamine® RNAiMAX silencing efficiency (30-60% depending on cell line, defined with a numeric value in the below tables). All experiments were done in triplicate.
(§2) Tables 1-7: RLuc (pDNA) or EGFP (mRNA) expression levels were normalized to Lipofectamine reagents (value=1) and expressed as fold-times signal increase. In the case of siRNA, the siRNA treated cells fluorescence was compared with siMOCK control fluorescence, while Cas9-RNP mediated knockout was measured against the fluorescence of untreated cells. In both siRNA and Cas9-RNP, values are expressed as % fluorescence reduction. Amphiphile concentration was 5 μM in all cases. All experiments were performed in triplicate.
Tables 20-25 show the mean (triplicates) percentage of GFP-silencing, accounted by fluorescence intensity decrease relative to a non-targeting siRNA (siMOCK) control, measured after the transfection of siRNA by different amphiphiles at different concentrations in a variety of cell lines. Background values, accounted by untreated control cells, were subtracted for processing.

[2] = tested on: HCT116 cells expressing EGFP; experiment: Cas9-RNP delivery against EGFP (gene editing, plate reader), HCT116
Experimental: as §1
Cells expressing EGFP were seeded in a 96 well plate the day before the experiment at a concentration of 50,000 cell/mL (100 μL/w) in DMEM+10% FBS+1% Gln-Abt. For robotic library screening, the delivery of Cas9-RNP against EGFP (RNP designed to knock-out the gene encoding for the enhanced green fluorescent protein (EGFP)) was performed. For RNP assembly, 9.2 μL of crRNA and 9.2 μL of tracrRNA were mixed in 211.6 μL of Nuclease-Free Duplex Buffer (IDT), incubated for 5 min at 95° C. and slowly cooled at rt (see I. Lostalé-Seijo, et al. Peptide/Cas9 nanostructures for ribonucleoprotein cell membrane transport and gene edition, Chem. Sci., 2017). Cas9 protein was dissolved in DMEM at a final concentration of 4 μM and equal volumes of the RNA complex and Cas9 were mixed and incubated for 5 min at rt. 75 μL of the corresponding amphiphile concentrations were added to 5 μL of RNP at 2 μM. The mixture was shaken for 30 min at room temperature before the addition to the cells. The cell medium was aspirated, and cells were washed twice with PBS. Cells were covered with 30 μL of DMEM and 20 μL of the RNP/amphiphile complexes were added to the cells (final peptide concentrations=2.5, 5 and 10 μM; final Cas9-RNP concentration=50 nM) and incubated for 4 h. After the incubation, the medium was replaced by 100 μL of fresh DMEM supplemented with 10% FBS. The total EGFP fluorescence was quantified after 72 h in a plate reader (FIG. 2, Table 1 (right) and Table 6). All experiments were done in triplicate. […]
(§3) Tables 26-31 show the mean (triplicates) percentage of gene editing, accounted by GFP fluorescence intensity decrease (% of reduction), measured after the transfection of Cas9-RNP by different amphiphiles at different concentrations in a variety of cell lines. Background values, accounted by untreated control cells, were subtracted for processing.

[3] = tested on: A549 cells expressing EGFP; experiment: Cas9-RNP delivery against EGFP (gene editing, plate reader), A549; conditions: A549 cells
Experimental: as §1
Cells expressing EGFP were seeded in a 96 well plate the day before the experiment at a concentration of 50,000 cell/mL (100 μL/w) in DMEM+10% FBS+1% Gln-Abt. For robotic library screening, the delivery of Cas9-RNP against EGFP (RNP designed to knock-out the gene encoding for the enhanced green fluorescent protein (EGFP)) was performed. For RNP assembly, 9.2 μL of crRNA and 9.2 μL of tracrRNA were mixed in 211.6 μL of Nuclease-Free Duplex Buffer (IDT), incubated for 5 min at 95° C. and slowly cooled at rt (see I. Lostalé-Seijo, et al. Peptide/Cas9 nanostructures for ribonucleoprotein cell membrane transport and gene edition, Chem. Sci., 2017). Cas9 protein was dissolved in DMEM at a final concentration of 4 μM and equal volumes of the RNA complex and Cas9 were mixed and incubated for 5 min at rt. 75 μL of the corresponding amphiphile concentrations were added to 5 μL of RNP at 2 μM. The mixture was shaken for 30 min at room temperature before the addition to the cells. The cell medium was aspirated, and cells were washed twice with PBS. Cells were covered with 30 μL of DMEM and 20 μL of the RNP/amphiphile complexes were added to the cells (final peptide concentrations=2.5, 5 and 10 μM; final Cas9-RNP concentration=50 nM) and incubated for 4 h. After the incubation, the medium was replaced by 100 μL of fresh DMEM supplemented with 10% FBS. The total EGFP fluorescence was quantified after 72 h in a plate reader (FIG. 2, Table 1 (right) and Table 6). All experiments were done in triplicate.
as §2, §3

Substance	percentage of GFP-silencing relative to siMOCK ([1]; Dodecanal, 5 μM)	percentage of GFP-silencing relative to siMOCK ([1]; Dodecanal, 10 μM)	percentage of GFP-silencing relative to siMOCK ([1]; Dodecanal, 15 μM)	percentage of GFP-silencing relative to siMOCK ([1]; Myristoleyl, 5 μM)	percentage of GFP-silencing relative to siMOCK ([1]; Myristoleyl, 10 μM)	percentage of GFP-silencing relative to siMOCK ([1]; Myristoleyl, 15 μM)	percentage of GFP-silencing relative to siMOCK ([1]; Oleyl, 10 μM)	percentage of GFP-silencing relative to siMOCK ([1]; Oleyl, 15 μM)	percentage of GFP-silencing relative to siMOCK ([1]; Palmitoleyl, 10 μM)	percentage of GFP-silencing relative to siMOCK ([1]; Palmitoleyl, 15 μM)	percentage of GFP-silencing relative to siMOCK ([1]; Petroselinyl, 10 μM)	percentage of GFP-silencing relative to siMOCK ([1]; Petroselinyl, 15 μM)	percentage of gene editing, GFP fluorescence intensity decrease (% of reduction) ([2]; Dodecanal, 5 μM)	percentage of gene editing, GFP fluorescence intensity decrease (% of reduction) ([2]; Dodecanal, 10 μM)	percentage of gene editing, GFP fluorescence intensity decrease (% of reduction) ([2]; Dodecanal, 15 μM)	percentage of gene editing, GFP fluorescence intensity decrease (% of reduction) ([2]; Oleyl, 5 μM)	percentage of gene editing, GFP fluorescence intensity decrease (% of reduction) ([2]; Palmitoleyl, 5 μM)	percentage of gene editing, GFP fluorescence intensity decrease (% of reduction) ([3]; Myristoleyl, 5 μM)	percentage of gene editing, GFP fluorescence intensity decrease (% of reduction) ([3]; Myristoleyl, 10 μM)	percentage of gene editing, GFP fluorescence intensity decrease (% of reduction) ([3]; Myristoleyl, 15 μM)	other results
Ac-RK*LRRK*LRK*-NH2 (Ac-RK(NHNH2)LRRK(NHNH2)LRK(NHNH2)-NH2; not fully specified; printed as Ac-RK*LRRK*LRK*-NH2; also: K*2,K*6,K*9: native or modified lysine (ε-amide to a linker)) [Peptide 9.3]	35%	35%	55%	34%	58%	23%	32%	28%	75%	64%	58%	75%	7%	1%	−8%	24%	−21%	13%	17%	50%	siRNA % fluorescence reduction vs siMOCK ([1]; palmitoleyl hydrophobic tail): 75%; percentage of GFP-silencing relative to siMOCK ([1]; Palmitoleyl, 5 μM): 42%; percentage of GFP-silencing relative to siMOCK ([1]; Petroselinyl, 5 μM): 6%; percentage of gene editing, GFP fluorescence intensity decrease (% of reduction) ([2]; Myristoleyl, 15 μM): −11%; percentage of gene editing, GFP fluorescence intensity decrease (% of reduction) ([2]; Oleyl, 10 μM): 14%; percentage of gene editing, GFP fluorescence intensity decrease (% of reduction) ([2]; Palmitoleyl, 15 μM): −38%; percentage of gene editing, GFP fluorescence intensity decrease (% of reduction) ([2]; Petroselinyl, 15 μM): 4%; percentage of gene editing, GFP fluorescence intensity decrease (% of reduction) ([3]; Dodecanal, 10 μM): 0%; percentage of gene editing, GFP fluorescence intensity decrease (% of reduction) ([3]; Dodecanal, 15 μM): 25%; percentage of gene editing, GFP fluorescence intensity decrease (% of reduction) ([3]; Oleyl, 15 μM): 18%; percentage of gene editing, GFP fluorescence intensity decrease (% of reduction) ([3]; Palmitoleyl, 15 μM): 39%; percentage of gene editing, GFP fluorescence intensity decrease (% of reduction) ([3]; Petroselinyl, 10 μM): 13%; percentage of gene editing, GFP fluorescence intensity decrease (% of reduction) ([3]; Petroselinyl, 15 μM): 47%
Ac-RK*LRRLLRK*-NH2 (Ac-RK(NHNH2)LRRLLRK(NHNH2)-NH2; not fully specified; printed as Ac-RK*LRRLLRK*-NH2; also: K*2,K*9: native or modified lysine (ε-amide to a linker)) [Peptide 9.2]	32%	29%	16%	−1%	−6%	−14%	–	–	–	–	–	–	−34%	−15%	−22%	–	–	9%	7%	14%	percentage of gene editing, GFP fluorescence intensity decrease (% of reduction) ([3]; Dodecanal, 10 μM): −22%; percentage of gene editing, GFP fluorescence intensity decrease (% of reduction) ([3]; Dodecanal, 15 μM): 4%
Ac-RRHK*RLK*RRLK*RL-NH2 (Ac-RRHK(NHNH2)RLK(NHNH2)RRLK(NHNH2)RL-NH2; not fully specified; printed as Ac-RRHK*RLK*RRLK*RL-NH2; also: K*4,K*7,K*11: native or modified lysine (ε-amide to a linker)) [13(Leu-His)]	–	10%	55%	–	10%	14%	20%	17%	54%	50%	38%	76%	−28%	−5%	–	7%	4%	13%	20%	45%	siRNA % fluorescence reduction vs siMOCK [1]: 76%; percentage of GFP-silencing relative to siMOCK ([1]; Oleyl, 5 μM): 29%; percentage of gene editing, GFP fluorescence intensity decrease (% of reduction) ([2]; Myristoleyl, 5 μM): 22%; percentage of gene editing, GFP fluorescence intensity decrease (% of reduction) ([2]; Myristoleyl, 10 μM): −105%; percentage of gene editing, GFP fluorescence intensity decrease (% of reduction) ([2]; Palmitoleyl, 15 μM): 0%; percentage of gene editing, GFP fluorescence intensity decrease (% of reduction) ([2]; Petroselinyl, 5 μM): 18%; percentage of gene editing, GFP fluorescence intensity decrease (% of reduction) ([3]; Palmitoleyl, 15 μM): 21%; percentage of gene editing, GFP fluorescence intensity decrease (% of reduction) ([3]; Petroselinyl, 5 μM): 13%; percentage of gene editing, GFP fluorescence intensity decrease (% of reduction) ([3]; Petroselinyl, 10 μM): 16%; percentage of gene editing, GFP fluorescence intensity decrease (% of reduction) ([3]; Petroselinyl, 15 μM): 42%
